Measurements reported in US4101649A, “Hydrosoluble agents having non specific immunodepressive properties” (Agence Nationale de Valorisation de la Recherche (ANVAR), priority 1975, dated 1978).
“And” between values parts separate entries of the source, which are not always exact repeats. Equal entries are not always repeated.

Columns and labels:
[1] = tested on: antiovalbumin antibodies; test: Rate of antiovalbumin antibodies in guinea pigs three weeks after injection of ovalbumin in FIA emulsion; assay type: in vivo, Hartley guinea pigs
Experimental: In the two series of tests the results of which are indicated hereafter, the influence of the active principles of the drugs according to the invention on the antiovalbumin antibodies rate was studied under the following conditions.
(§1) Female Hartley guinea pigs of 300-350 g. were given in the plantar pad of each of the two rear paws an emulsion composed of equal parts of incomplete Freund's adjuvant and a physiological solution containing ovalbumin (5 mg/guinea pig) and the preparations to be tested. The Freund's incomplete adjuvant (FIA), the Freund's complete adjuvant (FCA) marketed by the DIFCO Company and N-acetylmuramyl-L-alanyl-D-isoglutamine were used as controls.
The rate of antibodies with respect to ovalbumin was determined three weeks later after the injection in the conditions which were indicated in the French patent Nr 71 41610 of Nov. 19, 1971; it is expressed in μg of the antigen-antibody precipitate per ml of serum at the point of equivalence.

[2] = tested on: delayed hypersensivity to ovalbumin; test: Delayed hypersensitivity to ovalbumin (cutaneous reaction) in guinea pigs; assay type: in vivo, Hartley guinea pigs; conditions: 4 weeks after injection, 48 hours after 50 μg ovalbumine/animal sub-cutaneous
Experimental: as §1
In a second series of tests, the delayed hypersensivity to ovalbumin which produces a cutaneous reaction was measured four weeks after the injection; it is expressed by the diameter in millimetres of the erythema (E), of the induration (I) or of the necrosis (N), 48 hours after the sub-cutaneous injection of 50 micrograms of ovalbumin.

[3] = Table I, first series, 25 μg/animal + FIA, guinea pigs, 3 weeks after injection
[4] = Table II, second series, 25 μg/animal
[5] = Table II, second series, 100 μg/animal

SMILES	Antiovalbumin antibodies rates compared with animals which received Freund's incomplete adjuvant only (in words) ([1]; Table I)	Rate of antiovalbumin antibodies (individual animals) [1, 3]	Rate of antiovalbumin antibodies, mean values [1, 3]	Rate of antiovalbumin antibodies (individual animals) [1, 4]	Rate of antiovalbumin antibodies, mean values [1, 4]	Rate of antiovalbumin antibodies (individual animals) [1, 5]	Rate of antiovalbumin antibodies, mean values [1, 5]	Inhibition of the adjuvant action of Mur-N-Ac-L-Ala-D-Glu-α-NH2 when administered simultaneously (in words) ([1]; Table II, tests 5 and 6 versus test 3)	Delayed hypersensibility, cutaneous reaction (type letter not given) ([2]; 25 μg/animal)	Delayed hypersensibility, diameter of the induration (I) ([2]; 25 μg/animal)	Delayed hypersensibility, cutaneous reaction (type letter not given) ([2]; 100 μg/animal)	Delayed hypersensibility, diameter of the erythema (E) ([2]; 100 μg/animal)
CC(=O)N[C@H]1C(O)O[C@H](CO)[C@@H](O)[C@@H]1O[C@H](C)C(=O)N[C@@H](C)C(=O)N[C@@H](CCC(=O)O)C(N)=O (stereo partly drawn) [Mur-N-Ac-L-Ala-L-Glu-,α-NH2, 2-(2-acetamido-2-deoxy-3-D-glucopyranosyl)-D-propionyl-L-Ala-L-Glu-α-NH2]	much lower	1140 μg proteins / ml serum and 3400 μg proteins / ml serum and 4200 μg proteins / ml serum and 1700 μg proteins / ml serum and 800 μg proteins / ml serum and 700 μg proteins / ml serum and 2800 μg proteins / ml serum	2104 μg proteins / ml serum									
CC(=O)NC1C(O)OC(CO)C(O)C1OC(C)C(=O)NC(C)C(=O)NC(CCC(=O)O)C(N)=O [Mur-N-Ac-D-Ala-D-Glu-,α-NH2, 2-(2-acetamido-2-deoxy-3-O-D-glucopyranose)-D-propionyl-D-alanyl-D-isoglutamine]	much lower	200 μg proteins / ml serum and 800 μg proteins / ml serum and 900 μg proteins / ml serum and 1300 μg proteins / ml serum and 1900 μg proteins / ml serum and 1500 μg proteins / ml serum	1068 μg proteins / ml serum	1720 μg proteins/ ml serum and 660 μg proteins/ ml serum and 3600 μg proteins/ ml serum and 1800 μg proteins/ ml serum and 1760 μg proteins/ ml serum	1890 μg proteins/ ml serum	950 μg proteins/ ml serum and 1000 μg proteins/ ml serum and 1200 μg proteins/ ml serum	1050 μg proteins/ ml serum	strongly inhibits the adjuvant action	0 millimetres	12 millimetres	0 millimetres	5 millimetres
